The numbers were not newly measured in patent publication US20230047788A1, “COMPOSITIONS COMPRISING 5-CHOLESTEN-3, 25-DIOL, 3-SULFATE (25HC3S) OR PHARMACEUTICALLY ACCEPTABLE SALT THEREOF AND AT LEAST ONE CYCLIC OLIGOSACCHARIDE” (Virginia Commonwealth University, priority 2016, published 2023), which cites them from elsewhere.

For the series the following is noted: at 25°C; cited from earlier work.

For `CC(O)COC[C@H]1O[C@@H]2O[C@H]3[C@H](O)[C@@H](O)[C@@H](O[C@H]4[C@H](O)[C@@H](O)[C@@H](O[C@H]5[C@H](O)[C@@H](O)[C@@H](O[C@H]6[C@H](O)[C@@H](O)[C@@H](O[C@H]7[C@H](O)[C@@H](O)[C@@H](O[C@H]8[C@H](O)[C@@H](O)[C@@H](O[C@H]1[C@H](O)[C@H]2O)O[C@@H]8COCC(C)O)O[C@@H]7COCC(C)O)O[C@@H]6COCC(C)O)O[C@@H]5COCC(C)O)O[C@@H]4COCC(C)O)O[C@@H]3COCC(C)O` (stereo partly drawn) [HP-β-CD, hydroxypropyl β-cyclodextrin], the solubility in water is recorded as 50 % w/v.
